Results reported in ChEMBL document CHEMBL1130203, “Novel fluoroquinolone antibacterial agents containing oxime-substituted (aminomethyl)pyrrolidines: synthesis and antibacterial activity of 7-(4-(aminomethyl)-3-(methoxyimino)pyrrolidin-1-yl)-1-cyclopropyl-6- fluoro-4-oxo-1,4-dihydro[1,8]naphthyridine-3-carboxylic acid (LB20304)” (J Med Chem, 1997).
In brackets after ≈: the same amount, converted by molar mass.

Key:
[1] = test system: Acinetobacter calcoaceticus; test: Minimum inhibitory concentration (MIC) against Acinetobacter calcoaceticus 15473; type: functional; conditions: Acinetobacter calcoaceticus; read-out: MIC
Bacillus subtilis = test: Minimum inhibitory concentration (MIC) against Bacillus subtilis ATCC 6633; type: functional
Escherichia coli [2] = test: Minimum inhibitory concentration (MIC) against Escherichia coli 10536; type: functional
Escherichia coli [3] = test: Minimum inhibitory concentration (MIC) against Escherichia coli 3190Y; type: functional
Escherichia coli [4] = test: Minimum inhibitory concentration (MIC) against Escherichia coli TEM9 2639E; type: functional; conditions: Escherichia coli; read-out: MIC
Klebsiella aerogenes = test: Minimum inhibitory concentration (MIC) against Klebsiella aerogenes 1082E; type: functional; conditions: Klebsiella aerogenes; read-out: MIC
Pseudomonas aeruginosa [5] = test: Minimum inhibitory concentration (MIC) against Pseudomonas aeruginosa 1912E; type: functional; conditions: Pseudomonas aeruginosa; read-out: MIC
Staphylococcus aureus [6] = test: Minimum inhibitory concentration (MIC) against Staphylococcus aureus 241; type: functional; conditions: Staphylococcus aureus; read-out: MIC
Staphylococcus aureus [7] = test: Minimum inhibitory concentration (MIC) against Staphylococcus aureus 6538p.; type: functional
[8] = test system: Staphylococcus epidermidis; test: Minimum inhibitory concentration (MIC) against Staphylococcus epidermidis 887E; type: functional
[9] = test system: Staphylococcus epidermidis; test: Minimum inhibitory concentration (MIC) against Staphylococcus epidermidis 178; type: functional; conditions: Staphylococcus epidermidis; read-out: MIC
Staphylococcus aureus [10] = test: Minimum inhibitory concentration (MIC) against Staphylococcus aureus giorgio; type: functional
Enterococcus faecalis = test: Minimum inhibitory concentration (MIC) against Streptococcus faecalis 29212; type: functional; conditions: Enterococcus faecalis; read-out: MIC
Enterobacter cloacae = test: Minimum inhibitory concentration (MIC) against Enterobacter cloacae P99; type: functional
[11] = maximum Plasma concentration in Rats was determined after Peroral administration; type: ADME, organism-based; set-up: route oral; conditions: rat, po
[12] = Area under curve was determined in Rats after peroral administration; type: ADME, organism-based; conditions: rat, in vivo, po
[13] = Half-life in Rats was determined after Peroral administration; type: ADME, organism-based; conditions: rat, in vivo, po
[14] = Oral bioavailability in rat; type: ADME, organism-based; conditions: in vivo
[15] = Tmax was determined in Rats after Peroral administration; type: ADME, organism-based; conditions: rat, in vivo, po
Mus musculus [16] = species on record: Mus musculus; test: 50% Effective Dose against systemic infection in mouse by Pseudomonas aeruginosa 1912E; type: functional
Mus musculus [17] = species on record: Mus musculus; test: 50% Effective Dose against systemic infection in mouse by Staphylococcus aureus giorgo; type: functional
Mus musculus [18] = species on record: Mus musculus; test: 50% Effective Dose against systemic infection in mouse by Escherichia coli 851E; type: functional
Escherichia coli [19] = test: Minimum inhibitory concentration (MIC) against Escherichia coli 851E
Pseudomonas aeruginosa [20] = test: Minimum inhibitory concentration (MIC) against Pseudomonas aeruginosa 1912E
Streptococcus pneumoniae = test: Minimum inhibitory concentration (MIC) against Streptococcus pneumoniae 77A
Staphylococcus aureus [21] = test: Minimum inhibitory concentration (MIC) against Staphylococcus aureus giorgo
[22] = test system: Acinetobacter calcoaceticus; test: Minimum inhibitory concentration (MIC) against Acinetobacter calcoaceticus; type: functional

SMILES	MIC [1] [µg/mL]	MIC (Bacillus subtilis) [µg/mL]	MIC (Escherichia coli [2]) [µg/mL]	MIC (Escherichia coli [3]) [µg/mL]	MIC (Escherichia coli [4]) [µg/mL]	MIC (Klebsiella aerogenes) [µg/mL]	MIC (Pseudomonas aeruginosa [5]) [µg/mL]	MIC (Staphylococcus aureus [6]) [µg/mL]	MIC (Staphylococcus aureus [7]) [µg/mL]	MIC [8] [µg/mL]	MIC [9] [µg/mL]	MIC (Staphylococcus aureus [10]) [µg/mL]	MIC (Enterococcus faecalis) [µg/mL]	MIC (Enterobacter cloacae) [µg/mL]	further results
NCC1CCN(c2nc3c(cc2F)c(=O)c(C(=O)O)cn3C2CC2)C1 (stereo not drawn)	0.13 (≈ 0.375 µM)	0.016 (≈ 0.0462 µM)	0.031 (≈ 0.0895 µM)	< 0.008	0.063 (≈ 0.182 µM)	0.063 (≈ 0.182 µM)	0.5 (≈ 1.44 µM)	16 (≈ 46.2 µM)	0.031 (≈ 0.0895 µM)	0.016 (≈ 0.0462 µM)	32 (≈ 92.4 µM)	0.031 (≈ 0.0895 µM)	0.13 (≈ 0.375 µM)	0.031 (≈ 0.0895 µM)	Cmax [11]: 300 ng/mL; AUC [12]: 380 ng·h/mL; half-life [13]: 2.2 h; bioavailability [14]: 10.1%; Tmax [15]: 0.17 h; ED50 (Mus musculus [16]): 29.8 mg/kg; ED50 (Mus musculus [17]): 8.03 mg/kg; ED50 (Mus musculus [18]): > 13.5 mg/kg; MIC (Escherichia coli [19]): 0.031 µg/mL (≈ 0.0895 µM); MIC (Pseudomonas aeruginosa [20]): 0.5 µg/mL (≈ 1.44 µM); MIC (Streptococcus pneumoniae): 0.063 µg/mL (≈ 0.182 µM); MIC (Staphylococcus aureus [21]): 0.031 µg/mL (≈ 0.0895 µM)
CCn1cc(C(=O)O)c(=O)c2cc(F)c(N3C/C(=N\OC)C(CN)C3)c(F)c21 (stereo not drawn)	1 (≈ 2.54 µM)	0.031 (≈ 0.0786 µM)	0.063 (≈ 0.16 µM)	0.063 (≈ 0.16 µM)	0.5 (≈ 1.27 µM)	0.5 (≈ 1.27 µM)	2 (≈ 5.07 µM)	4 (≈ 10.1 µM)	0.031 (≈ 0.0786 µM)	0.063 (≈ 0.16 µM)	4 (≈ 10.1 µM)	0.063 (≈ 0.16 µM)	0.25 (≈ 0.634 µM)	0.13 (≈ 0.33 µM)	–
CO/N=C1\CN(c2nc3c(cc2F)c(=O)c(C(=O)O)cn3-c2ccc(F)cc2F)CC1CN (stereo not drawn)	0.13 (≈ 0.282 µM)	0.016 (≈ 0.0347 µM)	0.063 (≈ 0.137 µM)	0.008 (≈ 0.0173 µM)	0.25 (≈ 0.542 µM)	0.25 (≈ 0.542 µM)	0.5 (≈ 1.08 µM)	8 (≈ 17.3 µM)	0.031 (≈ 0.0672 µM)	0.016 (≈ 0.0347 µM)	8 (≈ 17.3 µM)	0.031 (≈ 0.0672 µM)	0.13 (≈ 0.282 µM)	0.063 (≈ 0.137 µM)	–
CNCC1CN(c2nc3c(cc2F)c(=O)c(C(=O)O)cn3C2CC2)C/C1=N\OC (stereo not drawn)	1 (≈ 2.48 µM)	0.25 (≈ 0.62 µM)	0.063 (≈ 0.156 µM)	0.063 (≈ 0.156 µM)	0.5 (≈ 1.24 µM)	0.5 (≈ 1.24 µM)	2 (≈ 4.96 µM)	128 (≈ 317 µM)	0.063 (≈ 0.156 µM)	0.13 (≈ 0.322 µM)	128 (≈ 317 µM)	0.13 (≈ 0.322 µM)	0.5 (≈ 1.24 µM)	0.13 (≈ 0.322 µM)	–
NCC1CN(c2nc3c(cc2F)c(=O)c(C(=O)O)cn3C2CC2)C/C1=N\OCc1ccccc1 (stereo not drawn)	< 0.008	< 0.008	< 0.008	< 0.008	0.063 (≈ 0.135 µM)	0.063 (≈ 0.135 µM)	1 (≈ 2.15 µM)	2 (≈ 4.3 µM)	< 0.008	< 0.008	2 (≈ 4.3 µM)	< 0.008	0.031 (≈ 0.0666 µM)	< 0.008	–
CC(C)O/N=C1\CN(c2nc3c(cc2F)c(=O)c(C(=O)O)cn3C2CC2)CC1CN (stereo not drawn)	0.031 (≈ 0.0743 µM)	< 0.008	< 0.008	< 0.008	0.063 (≈ 0.151 µM)	0.13 (≈ 0.311 µM)	1 (≈ 2.4 µM)	2 (≈ 4.79 µM)	< 0.008	< 0.008	1 (≈ 2.4 µM)	< 0.008	0.063 (≈ 0.151 µM)	< 0.008	–

Now from value to molecule, other results behind:

MIC [1] [µg/mL]	MIC (Bacillus subtilis) [µg/mL]	MIC (Escherichia coli [2]) [µg/mL]	MIC (Escherichia coli [3]) [µg/mL]	MIC (Escherichia coli [4]) [µg/mL]	MIC (Klebsiella aerogenes) [µg/mL]	MIC (Pseudomonas aeruginosa [5]) [µg/mL]	MIC (Staphylococcus aureus [6]) [µg/mL]	MIC (Staphylococcus aureus [7]) [µg/mL]	MIC [8] [µg/mL]	MIC [9] [µg/mL]	MIC (Staphylococcus aureus [10]) [µg/mL]	MIC (Enterococcus faecalis) [µg/mL]	MIC (Enterobacter cloacae) [µg/mL]	SMILES	further results
0.031 (≈ 0.0718 µM)	< 0.008	≤ 0.008	0.016 (≈ 0.0371 µM)	0.063 (≈ 0.146 µM)	0.25 (≈ 0.579 µM)	2 (≈ 4.64 µM)	1 (≈ 2.32 µM)	0.008 (≈ 0.0185 µM)	< 0.008	1 (≈ 2.32 µM)	< 0.008	0.063 (≈ 0.146 µM)	≤ 0.008	CC(C)(C)O/N=C1\CN(c2nc3c(cc2F)c(=O)c(C(=O)O)cn3C2CC2)CC1CN (stereo not drawn)	–
–	< 0.008	< 0.008	< 0.008	0.031 (≈ 0.0763 µM)	0.031 (≈ 0.0763 µM)	0.25 (≈ 0.615 µM)	0.5 (≈ 1.23 µM)	< 0.008	< 0.008	0.5 (≈ 1.23 µM)	< 0.008	0.031 (≈ 0.0763 µM)	0.016 (≈ 0.0394 µM)	CO/N=C1\CN(c2c(F)cc3c(=O)c(C(=O)O)cn(C4CC4)c3c2F)CC1CN (stereo not drawn)	MIC [22]: 0.031 µg/mL (≈ 0.0763 µM)
0.031 (≈ 0.0743 µM)	< 0.008	< 0.008	< 0.008	0.063 (≈ 0.151 µM)	0.13 (≈ 0.311 µM)	1 (≈ 2.4 µM)	2 (≈ 4.79 µM)	0.008 (≈ 0.0192 µM)	< 0.008	1 (≈ 2.4 µM)	< 0.008	0.063 (≈ 0.151 µM)	< 0.008	CCCO/N=C1\CN(c2nc3c(cc2F)c(=O)c(C(=O)O)cn3C2CC2)CC1CN (stereo not drawn)	–
